Reference: patent publication EP4389111A1, “METHOD OF PREPARATION OF C[…] […] AND C[…] […]” (Aero-Bw K. Domagala Sp. Jawna, priority 2022, dated 2024)
“And” between values parts separate entries of the source, which are not always exact repeats. Equal values may be shown once.

Tested on: Salmonella typhimurium TA98
Test: Ames test, strain TA98 (reading frame shift)
Type: cell-based
Settings: positive control at 2 µg/mL
Text: The test allows the identification of substances that cause mutations such as reading frame shifts or base pair substitutions. The test uses modified strains of Salmonella typhimurium bacteria carrying mutations in the operon of the gene encoding the amino acid histidine.
The aim of the study was to assess the mutagenic potential of three extracts obtained from stem cells using two strains of Salmonella typhimurium carrying two types of mutations: TA 98—reading frame shift and TA 100—base pair substitution.
The experimental procedure was carried out basing on the manufacturer's experimental protocol (Xenometrix).

O=[N+]([O-])c1ccc2c(c1)Cc1ccccc1-2 [Extract 2-NF, 2-nitrofluorene]
MOI (Multiplicity of induction compared to baseline): 6.9 and 5.6
